PubChem BioAssay (NCI)
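Cultured in 96-well plates, cells were exposed to test compound for 48 hours across five concentrations. GI50 = concentration required for 50% inhibition of growth. Definition used: TGI = concentration required for complete inhibition of growth.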

Columns and labels:
Experiment in all cases: growth of human tumour cells (NCI), 48 h
[1] = test system: HOP-92 NSCLC
[2] = test system: SK-MEL-2 melanoma
[3] = test system: HT29 colon
[4] = test system: UACC-62 melanoma
[5] = test system: BT-549 breast
[6] = test system: A549 NSCLC
[7] = test system: RXF 393 renal
[8] = test system: K-562 leukemia
[9] = test system: T-47D breast
[10] = test system: HL-60(TB) leukemia
[11] = test system: NCI-H522 lung
[12] = test system: HCC-2998 colon
[13] = test system: UACC-257 melanoma
[14] = test system: IGROV1 ovarian
[15] = test system: NCI-H226 lung
[16] = test system: SK-OV-3 ovarian
[17] = test system: HCT-15 colon
[18] = test system: CCRF-CEM leukemia
[19] = test system: SR leukemia
[20] = test system: MCF7 breast
[21] = test system: HS 578T breast
[22] = test system: PC-3 prostate
[23] = test system: KM12 colon
[24] = test system: CAKI-1 renal
[25] = test system: SK-MEL-5 melanoma
[26] = test system: SF-539 CNS
[27] = test system: EKVX NSCLC
[28] = test system: M14 melanoma
[29] = test system: DU-145 prostate
[30] = test system: SW-620 colon
[31] = test system: SNB-19 CNS
[32] = test system: COLO 205 colon
[33] = test system: MOLT-4 leukemia
[34] = test system: 786-0 renal
[35] = test system: A498 renal
[36] = test system: SF-268 CNS
[37] = test system: OVCAR-5 ovarian
[38] = test system: ACHN renal
[39] = test system: SN12C renal
[40] = test system: HCT-116 colon
[41] = test system: MDA-MB-468 breast
[42] = test system: SK-MEL-28 melanoma
[43] = test system: MALME-3M melanoma
[44] = test system: OVCAR-8 ovarian
[45] = test system: SF-295 CNS
[46] = test system: MDA-MB-435
[47] = test system: TK-10 renal
[48] = test system: NCI-H460 lung
[49] = test system: OVCAR-4 ovarian
[50] = test system: HOP-62 NSCLC
[51] = test system: SNB-75 CNS
[52] = test system: RPMI-8226 leukemia
[53] = test system: U251 CNS
[54] = test system: LOX IMVI melanoma
[55] = test system: NCI-H23 lung
[56] = test system: MDA-MB-231 breast
[57] = test system: OVCAR-3 ovarian
[58] = test system: UO-31 renal

**Q.** `COc1ccccc1NC(=O)c1ccc(NC(=O)CCl)s1` was tested. Which GI50 [1] did it give?
**A.** 16.5 µM

**Q.** What about the TGI [1] of the same molecule?
**A.** 34.7 µM

**Q.** What about the GI50 [2] of the same molecule?
**A.** 13.9 µM

**Q.** And the TGI [2]?
**A.** 29.2 µM

**Q.** And the GI50 [3]?
**A.** 8.76 µM

**Q.** And the TGI [3]?
**A.** 22.9 µM

**Q.** And the GI50 [4]?
**A.** 16.1 µM

**Q.** And the TGI [4]?
**A.** 31 µM

**Q.** And the GI50 [5]?
**A.** 12.2 µM

**Q.** What about the TGI [5] of the same molecule?
**A.** 26.8 µM

**Q.** And the GI50 [6]?
**A.** 14.7 µM

**Q.** What about the TGI [6] of the same molecule?
**A.** 40 µM

**Q.** What about the GI50 [7] of the same molecule?
**A.** 11.6 µM

**Q.** And the TGI [7]?
**A.** 25.1 µM

**Q.** And the GI50 [8]?
**A.** 2650 nM

**Q.** What about the TGI [8] of the same molecule?
**A.** > 100 µM

**Q.** What about the GI50 [9] of the same molecule?
**A.** 42.3 µM

**Q.** What about the TGI [9] of the same molecule?
**A.** > 100 µM

**Q.** What about the GI50 [10] of the same molecule?
**A.** 4.76 µM

**Q.** And the TGI [10]?
**A.** 35.6 µM

**Q.** And the GI50 [11]?
**A.** 10.6 µM

**Q.** What about the TGI [11] of the same molecule?
**A.** 24 µM

**Q.** What about the GI50 [12] of the same molecule?
**A.** 28.6 µM

**Q.** What about the TGI [12] of the same molecule?
**A.** > 100 µM

**Q.** What about the GI50 [13] of the same molecule?
**A.** 24.3 µM

**Q.** And the TGI [13]?
**A.** > 100 µM

**Q.** And the GI50 [14]?
**A.** 15.6 µM

**Q.** And the TGI [14]?
**A.** 34.9 µM

**Q.** And the GI50 [15]?
**A.** 14.6 µM

**Q.** And the TGI [15]?
**A.** 32.4 µM

**Q.** What about the GI50 [16] of the same molecule?
**A.** 29.5 µM

**Q.** And the TGI [16]?
**A.** 74.9 µM

**Q.** And the GI50 [17]?
**A.** 4.29 µM

**Q.** And the TGI [17]?
**A.** 29 µM

**Q.** What about the GI50 [18] of the same molecule?
**A.** 3.62 µM

**Q.** What about the TGI [18] of the same molecule?
**A.** 88.1 µM

**Q.** What about the GI50 [19] of the same molecule?
**A.** 3.11 µM

**Q.** What about the TGI [19] of the same molecule?
**A.** > 100 µM

**Q.** What about the GI50 [20] of the same molecule?
**A.** 5.02 µM

**Q.** And the TGI [20]?
**A.** 44 µM

**Q.** What about the GI50 [21] of the same molecule?
**A.** 15.1 µM

**Q.** And the TGI [21]?
**A.** 54.4 µM

**Q.** And the GI50 [22]?
**A.** 11.1 µM

**Q.** What about the TGI [22] of the same molecule?
**A.** 28.4 µM

**Q.** What about the GI50 [23] of the same molecule?
**A.** 14.7 µM

**Q.** What about the TGI [23] of the same molecule?
**A.** 38.8 µM

**Q.** What about the GI50 [24] of the same molecule?
**A.** 12.8 µM

**Q.** And the TGI [24]?
**A.** 29 µM

**Q.** What about the GI50 [25] of the same molecule?
**A.** 15.3 µM

**Q.** And the TGI [25]?
**A.** 29.4 µM

**Q.** And the GI50 [26]?
**A.** 16.2 µM

**Q.** What about the TGI [26] of the same molecule?
**A.** 30.8 µM

**Q.** What about the GI50 [27] of the same molecule?
**A.** 18 µM

**Q.** What about the TGI [27] of the same molecule?
**A.** 67.7 µM

**Q.** And the GI50 [28]?
**A.** 13.1 µM

**Q.** What about the TGI [28] of the same molecule?
**A.** 28.7 µM

**Q.** What about the GI50 [29] of the same molecule?
**A.** 24.7 µM

**Q.** What about the TGI [29] of the same molecule?
**A.** 85 µM

**Q.** And the GI50 [30]?
**A.** 4.27 µM

**Q.** What about the TGI [30] of the same molecule?
**A.** 21.7 µM

**Q.** And the GI50 [31]?
**A.** 32.4 µM

**Q.** And the TGI [31]?
**A.** > 100 µM

**Q.** And the GI50 [32]?
**A.** 15.1 µM

**Q.** And the TGI [32]?
**A.** 35.5 µM

**Q.** What about the GI50 [33] of the same molecule?
**A.** 4.23 µM

**Q.** And the TGI [33]?
**A.** 40.6 µM

**Q.** What about the GI50 [34] of the same molecule?
**A.** 12.3 µM

**Q.** And the TGI [34]?
**A.** 26.1 µM

**Q.** What about the GI50 [35] of the same molecule?
**A.** 87.4 µM

**Q.** And the TGI [35]?
**A.** > 100 µM

**Q.** What about the GI50 [36] of the same molecule?
**A.** 18.8 µM

**Q.** And the TGI [36]?
**A.** 64.2 µM

**Q.** And the GI50 [37]?
**A.** 23.6 µM

**Q.** And the TGI [37]?
**A.** 49.2 µM

**Q.** And the GI50 [38]?
**A.** 10.5 µM

**Q.** And the TGI [38]?
**A.** 24.5 µM

**Q.** What about the GI50 [39] of the same molecule?
**A.** 13.4 µM

**Q.** What about the TGI [39] of the same molecule?
**A.** 36 µM

**Q.** And the GI50 [40]?
**A.** 5.52 µM

**Q.** And the TGI [40]?
**A.** 30.5 µM

**Q.** What about the GI50 [41] of the same molecule?
**A.** 12.4 µM

**Q.** And the TGI [41]?
**A.** 27.7 µM

**Q.** What about the GI50 [42] of the same molecule?
**A.** 21.9 µM

**Q.** And the TGI [42]?
**A.** 54.1 µM

**Q.** And the GI50 [43]?
**A.** 15.1 µM

**Q.** What about the TGI [43] of the same molecule?
**A.** 30.5 µM

**Q.** And the GI50 [44]?
**A.** 12.7 µM

**Q.** What about the TGI [44] of the same molecule?
**A.** 33.8 µM

**Q.** What about the GI50 [45] of the same molecule?
**A.** 25.9 µM

**Q.** What about the TGI [45] of the same molecule?
**A.** > 100 µM

**Q.** What about the GI50 [46] of the same molecule?
**A.** 15.7 µM

**Q.** And the TGI [46]?
**A.** 32.5 µM

**Q.** And the GI50 [47]?
**A.** 20.4 µM

**Q.** What about the TGI [47] of the same molecule?
**A.** 73.6 µM

**Q.** And the GI50 [48]?
**A.** 11 µM

**Q.** What about the TGI [48] of the same molecule?
**A.** 35.4 µM

**Q.** What about the GI50 [49] of the same molecule?
**A.** 21 µM

**Q.** What about the TGI [49] of the same molecule?
**A.** 68.7 µM

**Q.** And the GI50 [50]?
**A.** 36.4 µM

**Q.** What about the TGI [50] of the same molecule?
**A.** > 100 µM

**Q.** What about the GI50 [51] of the same molecule?
**A.** 11.5 µM

**Q.** What about the TGI [51] of the same molecule?
**A.** 83.2 µM

**Q.** And the GI50 [52]?
**A.** 13.6 µM

**Q.** And the TGI [52]?
**A.** 38.6 µM

**Q.** What about the GI50 [53] of the same molecule?
**A.** 13.9 µM

**Q.** What about the TGI [53] of the same molecule?
**A.** 28.1 µM

**Q.** What about the GI50 [54] of the same molecule?
**A.** 4.81 µM

**Q.** And the TGI [54]?
**A.** 18.5 µM

**Q.** What about the GI50 [55] of the same molecule?
**A.** 13.6 µM

**Q.** And the TGI [55]?
**A.** 31.2 µM

**Q.** What about the GI50 [56] of the same molecule?
**A.** 15.2 µM

**Q.** And the TGI [56]?
**A.** 33.7 µM

**Q.** And the GI50 [57]?
**A.** 13.6 µM

**Q.** And the TGI [57]?
**A.** 29 µM

**Q.** What about the GI50 [58] of the same molecule?
**A.** 13.7 µM

**Q.** What about the TGI [58] of the same molecule?
**A.** 27.3 µM
